{
  "source": "patent US20250144069A1",
  "about": "“BILOBALIDE DERIVATIVE COMPOUNDS FOR TREATING NEUROLOGICAL DISEASES AND CANCERS” (The Chinese University of Hong Kong, priority 2023, published 2025)",
  "key": {"[1]": {"test_system": "A549 cells", "experiment": "Dose-dependent CCK8 viability assay", "format": "cell-based, human", "experimental": "(§1) In this example, dose-dependent CCK8 Viability assay was performed to determine the IC50 (the concentration of compound to achieve 50% viability) of several of the hit compounds identified from Example 2. A variety of cell lines were used: • Jurkat cells: Human leukemia • A549 cells: Human NSCLC • KP-1 cells: Mouse NSCLC with KRAS and P53 mutations • MCF-7 cells: Human breast cancer\n(§2) Method for Adherent Cells (A549, MCF-7 and KP-1 Cells)\n(§3) 5000 cells/100 uL were seeded in 96-well plates and incubate at 37° C.+5% CO2 overnight. Media were replaced with 100 uL of compound per well in 6 replicates in a series of 2-fold dilutions. The following controls were prepared.\n(§4) Blank control: 100 uL 0.1% DMSO in media with no cells per well.\n(§5) Positive control: 100 uL of 10 uM 5-flurouracil per well.\n(§6) Negative control: 100 uL of 0.1% DMSO in media per well.\n(§7) Each 96-well plate included 1 compound in 7 concentrations and a complete set of controls (in 6 replicates).\n(§8) Cells were incubated at 37° C.+5% CO2 for 46 hours. 10 uL of CCK8 solution was added to each well. Cells were incubated at 37° C.+5% CO2 for 2 hours. Absorbance at 450 nm was measured using a multiplate reader.\n(§9) Viability was calculated using the equation: […]"}, "[2]": {"test_system": "MCF-7 cells", "experiment": "Dose-dependent CCK8 viability assay", "format": "cell-based", "conditions": "Homo sapiens, MCF7, 48 hours", "experimental": "as §1, §2, §3, §4, §5, §6, §7, §8, §9"}, "[3]": {"test_system": "KP-1 cells", "experiment": "Dose-dependent CCK8 viability assay", "format": "cell-based", "conditions": "Mus musculus, 48 hours", "experimental": "as §1, §2, §3, §4, §5, §6, §7, §8, §9"}, "[4]": {"test_system": "Jurkat cells", "experiment": "Single-dose CCK-8 cell viability screening (suspension cells)", "format": "cell-based, human", "conditions": "Jurkat cells, 50 uM"}, "[5]": {"experiment": "Single-dose CCK-8 cell viability screening (adherent cells)", "format": "cell-based, human", "conditions": "Homo sapiens, A549, 48 h, average of A549 and Jurkat % viability, 50 uM, 48 h"}, "[6]": {"test_system": "A549 cells", "experiment": "Single-dose CCK-8 cell viability screening (adherent cells)", "format": "cell-based, human", "conditions": "A549 cells, 50 uM, 48 h, CCK-8"}, "[7]": {"test_system": "NCI-60 cell line panel", "experiment": "NCI-60 Human Tumor Cell Lines Screen, one-dose screen (SRB)", "format": "cell-based", "conditions": "48 hours", "excerpt": "In this example, the cytotoxic effect of DW192 was assess via the NCI-60 Human Tumor Cell Lines Screen, provided by the Developmental Therapeutics Program (DTP) of the National Cancer Institute (NCI) in the United States. This screening helps to identify and characterize the cytotoxic effect of compounds on 60 different human cancer cell lines, including leukemia, melanoma, and cancers of the lung, colon, brain, ovary, breast, prostate and kidneys. The screening comprised of two assays: one-dose screen and five-dose screen. In one-dose screen, 10 μM of DW192 was tested for 48 hours. In five-dose screen, four, 10-fold of ½ log serial dilutions were tested for 48 hours.\nMethod (Extracted from the NCI-60 Website)\nCells were seeded into 96-well plates in 100 uL at plating densities ranging from 5,000 to 40,000 cells/well depending on the doubling time of individual cell lines. Plates were incubated at 37° C.+5% CO2+95% air+100% relative humidity for 24 hours before adding compounds. Two plates of each cell line were fixed in situ with TCA, to represent a measurement of the cell population for each cell line at the time of drug addition (Tz). 100 uL of compounds in four, 10-fold of ½ log serial dilutions were added to the wells already containing 100 uL of medium. Plates were incubated at 37° C.+5% CO2+95% air+100% relative humidity for an additional 48 hours.\nTo terminate the assay, adherent cells were fixed in situ by the gentle addition of 50 uL of cold 50% (w/v) TCA (final concentration, 10% TCA) and incubated for 60 min at 4° C. For suspension cells, 50 uL of 80% TCA (final concentration, 16% TCA) was used.\nSupernatant was discarded, and the plates were wash five times with tap water and air dried. […]\nRemaining stained cells were solubilized with 10 mM trizma base. Absorbance at 515 nm was measured.\nPercentage growth was calculated using the following equations:\n[formula] [formula] • where Tz=absorbance at time zero, C=absorbance of control growth, Ti=absorbance of test growth in the presence of drug at the five concentration levels."}, "[8]": {"test_system": "B16 melanoma cells", "experiment": "B16 melanoma allograft in C57BL/6 mice", "format": "in vivo", "conditions": "40 mg/kg daily subcutaneous injections, 21 days", "experimental": "In the example, C57BL/6 mice were subcutaneously injected with B16 melanoma cells. Tumor cells were allowed to develop for one week, after that mice were treated with daily subcutaneous injections of vehicle or DW192 (40 mg/kg) for 21 days. FIG. 12A is a plot showing the tumor growth curves."}, "[9]": {"test_system": "Jurkat cells", "experiment": "Dose-dependent CCK8 viability assay", "format": "cell-based", "conditions": "Homo sapiens, 48 hours", "experimental": "as §1\nMethod for Suspension Cells (Jurkat Cells)\n5000 cells/90 uL were seeded in 96-well plates. 10 uL of compound (10×) in various concentrations was added to each well in 6 replicates. The following controls were prepared.\nBlank control: 10 uL 1% DMSO in media with no cells per well.\nPositive control: 10 uL of 100 uM 5-flurouracil (10×) per well.\nNegative control: 10 uL of 1% DMSO in media (10×) per well.\nNote: Each 96-well plate can test 1 compound in 7 concentrations with a complete set of controls (in 6 replicates)\nas §8\nViability was calculated using this equation: […]"}},
  "data": [
    {"smiles": "CC(C)(C)[C@]1(O)C[C@@H]2OC(=O)C[C@@]23C(=O)O[C@@H]2N(CC4C5CC6CC(C5)CC4C6)C(=O)[C@H](OC(=O)c4ccccc4)[C@]213", "note": "(stereo partly drawn) [DW192, (3aS,5aS,8R,8aS,9R,10aS)-6-(((1S,5R,7S)-adamantan-2-yl)methyl)-9-(tert-butyl)-9-hydroxy-2,4,7-trioxooctahydro-4H,9H-furo [3″,2″:2′,3′]cyclopenta[1′,2′:3,4]furo[2,3-b]pyrrol-8-yl benzoate]", "values": [
      {"measurement": "IC50", "setting": "[1]; 48 hours", "result": 16.4, "unit": "µM"},
      {"measurement": "IC50", "setting": "[1]; Homo sapiens, A549, 48 h", "result": 21.9, "unit": "µM"},
      {"measurement": "IC50", "setting": "[2]", "result": 19.6, "unit": "µM"},
      {"measurement": "IC50", "setting": "[3]", "result": 15.8, "unit": "µM"},
      {"measurement": "viability at 50 µM", "setting": "[4]; Homo sapiens, Jurkat, 48 h, CCK-8, read-out: % Viability (50 uM, 48 h) Jurkat", "result": 43, "unit": "%"},
      {"measurement": "% Viability (50 uM, 48 h) Jurkat", "setting": "[4]; CCK-8, 50 µM", "result": 43.26, "unit": "%"},
      {"measurement": "viability at 50 µM", "setting": "[5]", "result": 48.2, "unit": "%"},
      {"measurement": "% Viability (50 uM, 48 h) A549", "setting": "[6]", "result": 53.19, "unit": "%"},
      {"measurement": "viability at 50 µM", "setting": "[6]; Homo sapiens, A549, 48 h, read-out: % Viability (50 uM, 48 h) A549", "result": 53, "unit": "%"},
      {"measurement": "cytotoxic effect across the NCI-60 cell line panel", "setting": "[7]; 10 μM", "result": "exhibits cytotoxic effects towards multiple cell lines of different cancer type"},
      {"measurement": "lethality", "setting": "[7]; COL0205 (colon cancer), 10 μM", "result": 66.18, "unit": "%"},
      {"measurement": "inhibition at 10 µM", "setting": "[7]; Homo sapiens, HOP-62, HOP62 (NSCLC), read-out: growth inhibition", "result": 50.2, "unit": "%"},
      {"measurement": "tumor growth and size", "setting": "[8]", "result": "significantly reduced the growth and size of melanoma tumors"},
      {"measurement": "IC50", "setting": "[9]", "result": 21.9, "unit": "µM"}
    ]}
  ]
}
